As a reminder, the IC50 is the midpoint of a concentration-inhibition curve. The low end stands for greater potency in that assay, the high end for weaker potency in that assay.

One assay addresses Somatostatin receptor. Briefly: Displacement of [125I]SRIF-14 from SSTR of rat AR42J cell membranes. Also noted: species or system Membrane. Particulars: ar-42j. A general note: In a radioligand displacement assay an active substance lowers the binding of a labelled ligand.
In turn, `CC(C)[C@@H]1NC(=O)[C@H](CCCCN)NC(=O)[C@H](Cc2c[nH]c3ccccc23)NC(=O)[C@H](Cc2ccc(O)cc2)NC(=O)[C@@H](Cc2ccccc2)N(C)C(=O)[C@H](CCS)NC1=O` returned an IC50 of 1.5 nM.

`C[C@@H](O)[C@@H]1NC(=O)[C@H](CCCCN)NC(=O)[C@H](Cc2c[nH]c3ccccc23)NC(=O)[C@H](Cc2ccc(O)cc2)NC(=O)[C@@H](CCS)N(C)C(=O)[C@H](Cc2ccccc2)NC1=O` displayed a half-maximal inhibitory concentration (IC50) of 0.1 nM.

`C[C@@H](O)[C@@H]1NC(=O)[C@H](CCCCN)NC(=O)[C@H](Cc2c[nH]c3ccccc23)NC(=O)[C@H](Cc2ccc(O)cc2)NC(=O)[C@@H](Cc2ccccc2)N(C)C(=O)[C@H](CCS)NC1=O`: the IC50 was found to be 0.4 nM.

For `C[C@@H](O)[C@@H]1NC(=O)[C@H](CCCCN)NC(=O)[C@H](Cc2c[nH]c3ccccc23)NC(=O)[C@H](Cc2ccc(O)cc2)NC(=O)[C@@H](CCS)NC(=O)[C@H](Cc2ccccc2)N(C)C1=O`, the half-inhibitory concentration (IC50) was 23.7 nM.

The molecule `CC(C)[C@@H]1NC(=O)[C@H](CCCCN)NC(=O)[C@H](Cc2c[nH]c3ccccc23)NC(=O)[C@H](Cc2ccc(O)cc2)NC(=O)[C@@H](CCS)N(C)C(=O)[C@H](Cc2ccccc2)NC1=O` returned an IC50 of 0.7 nM.

Another assay addresses Somatostatin receptor. Briefly: Displacement of [125I-Tyr-11]-SRIF from SSTR of human NCI-H69 cell membranes.
Conditions: not given
`C[C@@H](O)[C@H](NC(=O)[C@H](CS)NC(=O)[C@H](Cc1ccc(N)cc1)NC(=O)[C@@H](N)CNC(=O)CSCC[C@H]1C(=O)N[C@@H](Cc2ccc(O)cc2)C(=O)N[C@H](Cc2c[nH]c3ccccc23)C(=O)N[C@@H](CCCCN)C(=O)N[C@@H]([C@@H](C)O)C(=O)N[C@@H](Cc2ccccc2)C(=O)N1C)C(=O)O` came in with a 50% inhibitory concentration (IC50) of 0.64 nM.

On to `C[C@@H](O)[C@H](NC(=O)[C@H](CS)NC(=O)[C@H](Cc1ccc(N)cc1)NC(=O)[C@@H](N)CNC(=O)CSCC[C@H]1C(=O)N[C@@H](Cc2ccc(O)cc2)C(=O)N[C@H](Cc2c[nH]c3ccccc23)C(=O)N[C@@H](CCCCN)C(=O)N[C@@H]([C@@H](C)O)C(=O)N[C@@H](Cc2ccccc2)C(=O)N1C)C(=O)N[C@@H](CO)C(=O)O`, for which the half-inhibitory concentration (IC50) was found to be 0.2 nM.

Molecule `C[C@@H](O)[C@H](NC(=O)CSCC[C@H]1C(=O)N[C@@H](Cc2ccc(O)cc2)C(=O)N[C@H](Cc2c[nH]c3ccccc23)C(=O)N[C@@H](CCCCN)C(=O)N[C@@H]([C@@H](C)O)C(=O)N[C@@H](Cc2ccccc2)C(=O)N1C)C(=O)NCC(=O)NCC(=O)N[C@@H](CS)C(N)=O` came in with an IC50 of 1.6 nM.

`C[C@@H](O)[C@@H]1NC(=O)[C@H](CCCCN)NC(=O)[C@@H](Cc2c[nH]c3ccccc23)NC(=O)[C@H](Cc2ccc(O)cc2)NC(=O)[C@H](CCSCC(=O)NC[C@H](N)C(=O)N[C@@H](CO)C(=O)N[C@@H](CS)C(=O)N[C@H](CO)[C@@H](C)O)N(C)C(=O)[C@H](Cc2ccccc2)NC1=O` showed an IC50 of 1.6 nM.

Turning to `C[C@@H](O)[C@@H]1NC(=O)[C@H](CCCCN)NC(=O)[C@@H](Cc2c[nH]c3ccccc23)NC(=O)[C@H](Cc2ccc(O)cc2)NC(=O)[C@H](CCSCC(=O)NC[C@H](N)C(=O)N[C@@H](CCCCN)C(=O)N[C@@H](CS)C(=O)N[C@H](CO)[C@@H](C)O)N(C)C(=O)[C@H](Cc2ccccc2)NC1=O`, the IC50 was found to be 0.35 nM.

`C[C@@H](O)[C@@H]1NC(=O)[C@H](CCCCN)NC(=O)[C@@H](Cc2c[nH]c3ccccc23)NC(=O)[C@H](Cc2ccc(O)cc2)NC(=O)[C@H](CCSCC(=O)NC[C@H](N)C(=O)N[C@@H](Cc2ccc(N)cc2)C(=O)N[C@@H](CS)C(=O)N[C@H](CO)[C@@H](C)O)N(C)C(=O)[C@H](Cc2ccccc2)NC1=O` had an IC50 of 0.5 nM.

For the origin of these results see ChEMBL document CHEMBL1142948, “Somatostatin receptor-binding peptides suitable for tumor radiotherapy with Re-188 or Re-186. Chemistry and initial biological studies” (J Med Chem, 2007).
